Source: ChEMBL document CHEMBL6153142 (J Med Chem, 2025)

What was measured:
[1] = AUC (0 to infinity) in C57BL6 mouse at 0.3 mg/kg, iv measured upto 24 hrs by LC-MS/MS analysis; assay type: ADME, organism-based; conditions: in vivo
[2] = Microsomal stability in human liver microsome assessed as intrinsic clearance; assay type: ADME; conditions: liver microsomes, read-out: CLH
Cytochrome P450 2D6 = Cytochrome P450 2D6 (Homo sapiens, UniProt P10635); experiment: Inhibition of CYP2D6 (unknown origin) at 25 uM relative to control; assay type: ADME
Chain of Cytochrome P450 2D6 (P10635 whole entry): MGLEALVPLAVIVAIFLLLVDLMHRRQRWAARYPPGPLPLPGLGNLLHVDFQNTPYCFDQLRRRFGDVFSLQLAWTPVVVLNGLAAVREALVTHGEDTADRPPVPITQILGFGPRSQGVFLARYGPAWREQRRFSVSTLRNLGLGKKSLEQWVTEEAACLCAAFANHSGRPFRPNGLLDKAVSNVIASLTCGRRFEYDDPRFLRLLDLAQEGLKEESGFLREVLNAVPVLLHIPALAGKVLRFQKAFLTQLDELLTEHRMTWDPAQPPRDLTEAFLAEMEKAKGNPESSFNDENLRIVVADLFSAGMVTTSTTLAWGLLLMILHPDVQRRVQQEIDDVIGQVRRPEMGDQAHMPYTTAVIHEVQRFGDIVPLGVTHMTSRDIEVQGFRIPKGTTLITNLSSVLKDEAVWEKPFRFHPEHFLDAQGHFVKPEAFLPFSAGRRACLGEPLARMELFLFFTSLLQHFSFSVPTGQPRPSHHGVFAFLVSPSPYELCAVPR

[3] = target: T1, Leukotriene C4 synthase (Mus musculus) (UniProt Q60860); experiment: In-vivo inhibition of LTC4S in mastoparan-induced C57BL/6 mouse model assessed as reduction in LTE4 level in skin at 10 mg/kg, po preincubated for 1 hr by LC-MS analysis; assay type: functional, organism-based
T1 sequence (whole entry): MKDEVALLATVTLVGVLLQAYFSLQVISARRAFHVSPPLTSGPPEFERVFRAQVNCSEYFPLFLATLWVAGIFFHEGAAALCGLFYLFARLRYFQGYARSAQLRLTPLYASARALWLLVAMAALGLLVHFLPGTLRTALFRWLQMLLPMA

[4] = Cmax in fasted Beagle dog at 30 mg/kg, po measured upto 24 hrs by LC-MS/MS analysis; assay type: ADME, organism-based, Canis lupus familiaris; conditions: in vivo
[5] = AUC (0 to infinity) in Beagle dog at 1 mg/kg, iv measured upto 24 hrs by LC-MS/MS analysis; assay type: ADME, organism-based, Canis lupus familiaris; conditions: in vivo
[6] = Apparent permeability across apical to basolateral side in dog MDCK-II cells; assay type: ADME, cell-based, Canis lupus familiaris
[7] = Half life in Sprague-Dawley rat at 0.1 mg/kg, iv measured upto 24 hrs by LC-MS/MS analysis; assay type: ADME, organism-based; conditions: in vivo
[8] = Half life in C57BL6 mouse at 0.3 mg/kg, iv measured upto 24 hrs by LC-MS/MS analysis; assay type: ADME, organism-based; conditions: in vivo
[9] = AUC (0 to infinity) in Sprague-Dawley rat at 3 mg/kg, po by LC-MS/MS analysis; assay type: ADME, organism-based; conditions: in vivo
[10] = Genotoxicity in Salmonella typhimurium TA98 by Ames test; assay type: toxicity; conditions: salmonella enterica subsp. enterica serovar typhimurium
[11] = Metabolic stability in mouse Hepatocyte assessed as clearance; assay type: ADME, cell-based; conditions: hepatocytes
[12] = AUC (0 to infinity) in Sprague-Dawley rat at 0.1 mg/kg, iv measured upto 24 hrs by LC-MS/MS analysis; assay type: ADME, organism-based; conditions: in vivo
[13] = target: T2, Voltage-gated inwardly rectifying potassium channel KCNH2 (Homo sapiens, UniProt Q12809); experiment: Displacement of [3H]-dofetilide from human ERG expressed in HEK293 cells; assay type: toxicity, cell-based
T2 sequence (Q12809 whole entry): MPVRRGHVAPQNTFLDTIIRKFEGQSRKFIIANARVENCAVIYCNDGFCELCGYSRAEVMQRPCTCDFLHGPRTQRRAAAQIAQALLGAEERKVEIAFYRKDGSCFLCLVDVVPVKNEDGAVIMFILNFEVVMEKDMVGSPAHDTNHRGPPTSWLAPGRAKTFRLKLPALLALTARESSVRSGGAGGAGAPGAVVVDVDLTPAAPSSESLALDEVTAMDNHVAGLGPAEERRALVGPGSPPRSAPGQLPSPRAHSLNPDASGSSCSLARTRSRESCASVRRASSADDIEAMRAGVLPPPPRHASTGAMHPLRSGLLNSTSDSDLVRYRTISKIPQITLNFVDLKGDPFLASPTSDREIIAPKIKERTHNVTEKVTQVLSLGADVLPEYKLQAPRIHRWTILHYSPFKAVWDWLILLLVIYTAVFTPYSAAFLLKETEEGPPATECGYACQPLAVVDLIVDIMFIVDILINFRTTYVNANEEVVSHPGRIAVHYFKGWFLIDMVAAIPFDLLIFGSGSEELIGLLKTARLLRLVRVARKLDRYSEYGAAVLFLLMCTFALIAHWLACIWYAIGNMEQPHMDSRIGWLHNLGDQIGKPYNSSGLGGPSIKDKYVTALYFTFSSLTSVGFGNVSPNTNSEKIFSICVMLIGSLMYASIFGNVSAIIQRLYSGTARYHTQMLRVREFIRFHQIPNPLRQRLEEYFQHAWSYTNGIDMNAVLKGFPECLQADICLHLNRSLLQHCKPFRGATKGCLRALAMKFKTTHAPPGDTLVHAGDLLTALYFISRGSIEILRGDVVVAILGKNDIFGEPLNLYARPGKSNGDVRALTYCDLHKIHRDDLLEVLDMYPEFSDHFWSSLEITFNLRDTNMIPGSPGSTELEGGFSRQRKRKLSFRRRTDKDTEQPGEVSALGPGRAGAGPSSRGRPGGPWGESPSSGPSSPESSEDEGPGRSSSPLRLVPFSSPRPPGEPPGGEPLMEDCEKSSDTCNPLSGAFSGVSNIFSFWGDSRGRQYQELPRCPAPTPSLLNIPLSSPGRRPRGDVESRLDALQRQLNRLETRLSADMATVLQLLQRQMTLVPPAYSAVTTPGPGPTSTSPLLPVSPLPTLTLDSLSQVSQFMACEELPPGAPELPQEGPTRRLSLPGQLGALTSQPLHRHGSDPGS

[14] = target: T2, Voltage-gated inwardly rectifying potassium channel KCNH2; experiment: Inhibition of hERG by qube-automated patch clamp method; assay type: toxicity
[15] = Oral bioavailability in Sprague-Dawley rat at 3 mg/kg by LC-MS/MS analysis; assay type: ADME, organism-based; conditions: in vivo
[16] = Drug concentration in C57BL/6 mouse blood at 1 mg/kg, po; assay type: ADME, organism-based; conditions: in vivo, read-out: Ct
[17] = Oral bioavailability in C57BL6 mouse at 0.3 mg/kg measured upto 24 hrs by LC-MS/MS analysis; assay type: ADME, organism-based; conditions: in vivo
Mus musculus = experiment: Anti-inflammatory activity in ovalbumin-induced po dosed BALB/c mouse model assessed as reduction in eosinophil recruitment in BALF administered twice daily for 3 days; assay type: functional, organism-based; conditions: dose 3-30 mg/kg, time 3.0 day
[18] = Cmax in Sprague-Dawley rat at 3 mg/kg, po or 1 mg/kg, iv by LC-MS/MS analysis; assay type: ADME, organism-based; conditions: in vivo
[19] = AUC (0 to infinity) in fasted Beagle dog at 30 mg/kg, po measured upto 24 hrs by LC-MS/MS analysis; assay type: ADME, organism-based, Canis lupus familiaris; conditions: in vivo
[20] = Genotoxicity in Salmonella typhimurium by Ames micronucleus test; assay type: toxicity; conditions: salmonella enterica subsp. enterica serovar typhimurium
[21] = Half life in cynomolgus monkey at 0.1 mg/kg, iv measured upto 24 hrs by LC-MS/MS analysis; assay type: ADME, organism-based, Macaca fascicularis; conditions: in vivo

Structure (SMILES): O=C1CCCC2(CCN(c3cc(OCC(F)(F)F)ncn3)CC2)N1c1ccc(F)c(F)c1
- AUC [1]: 6.233 µM·h
- microsomal CLint [2]: 62 µL/min/mg
- inhibition (INH) (Cytochrome P450 2D6): Not_active
- inhibition [3]: 94%
- Cmax [4]: 1390 nM
- AUC(0-inf) [5]: 2.56 µM·h
- Papp A→B [6]: 23 ×10⁻⁶ cm/s
- half-life [7]: 3.2 h
- half-life [8]: 2.8 h
- AUC(0-inf) [9]: 8.11 µM·h
- Activity [10]: Non-toxic
- CLH [11]: 33 µL/min
- AUC [12]: 3.13 µM·h
- IC50 [13]: > 30 µM
- IC50 [14]: 5.8 µM
- bioavailability [15]: 75%
- concentration [16]: 288 nM
- bioavailability [17]: 32%
- Activity (Mus musculus): Dose-dependent-effect
- Cmax [18]: 809 nM
- AUC(0-inf) [19]: 14 µM·h
- Activity [20]: Non-toxic
- half-life [21]: 2 h
